Measured values reported in ChEMBL document CHEMBL1128647, “Novel open-ring analogues of N5,N10-methylenetetrahydrofolic acid with selective activity against brain tumor” (1995).

Assays:
Type in all cases: functional
Ovarian cancer cell line = experiment: Cytotoxic activity against human ovarian cancer cell line
Colon cancer cell line = experiment: Cytotoxic activity against human colon cancer cell line
SNB-75 = experiment: Cytotoxic activity against human CNS SNB-75 cancer cell line
Breast cancer cell line = experiment: Cytotoxic activity against human breast cancer cell line
Renal cancer cell line = experiment: Cytotoxic activity against human renal cancer cell line
Lung cancer cell line = experiment: Cytotoxic activity against human lung cancer cell line
Prostatic carcinoma cell = experiment: Cytotoxic activity against human prostate cancer cell line
U-251 = experiment: Cytotoxic activity against human CNS U251 cancer cell line

Row | Structure (SMILES) | GI50 (Ovarian cancer cell line) [µM] | GI50 (Colon cancer cell line) [µM] | GI50 (SNB-75) [µM] | GI50 (Breast cancer cell line) [µM] | GI50 (Renal cancer cell line) [µM] | GI50 (Lung cancer cell line) [µM] | GI50 (Prostatic carcinoma cell) [µM] | GI50 (U-251) [µM]
1 | Cc1nc(N)nc(O)c1N1CCN(c2ccc(S(N)(=O)=O)cc2)CC1 | > 100 | > 100 | 0.1 | > 100 | > 100 | > 0.0001 | > 100 | 
2 | Cc1nc(N)nc(O)c1N1CCN(c2ccc(C(=O)O)cc2)CC1 | > 100 | > 100 | > 100 | > 100 | 1.39 | > 100 | > 100 | 
3 | Cc1nc(N)nc(O)c1N1CCN(c2ccc(C#N)cc2)CC1 | 93 | > 0.0001 | 0.04 | > 0.0001 | > 100 | > 100 | > 0.0001 | 
4 | Cc1nc(N)nc(O)c1N1CCN(c2ccc(S(=O)(=O)N(Cc3ccccc3)Cc3ccccc3)cc2)CC1 | 0.7 | 55 |  | 2.1 | 3.1 | 4.8 | 1.9 | 3.68
5 | Cc1nc(N)nc(O)c1N1CCN(c2ccc([N+](=O)[O-])cc2)CC1 | > 100 | > 100 | < 0.01 | > 100 | > 100 | > 100 | > 100 | 
6 | CCOC(=O)CCC(NC(=O)c1ccc(N2CCN(c3c(C)nc(N)nc3O)CC2)cc1)C(=O)OCC (centres undefined) | > 0.0001 | > 100 | < 0.01 | > 100 | > 100 | > 100 | > 100 | 
7 | Cc1nc(N)nc(O)c1N1CCN(c2ccc(C(=O)NC(CCC(=O)O)C(=O)O)cc2)CC1 (centres undefined) | > 100 | > 100 | < 0.01 | > 100 | > 0.0001 | > 100 | > 100 | 
